Like-named read-outs stand apart in the source and are kept apart here. Residues, ends and D or L forms follow the SMILES beside them.

The values that follow come from publication PMC11263391, “Molecular insights into degron recognition by CRL5^ASB7 ubiquitin ligase” (Nature Communications, 2024).

This assay has as its target T1, ASB7-Elongin B/C (Homo sapiens, UniProt Q9H672).
T1 construct: The human ASB7 (residues 11–318) was amplified via PCR; His8-SUMO (pET28-MKH8SUMO) (N, cleaved yes); made in house; host or cells: Escherichia coli BL21 (DE3)
Briefly: ITC of degron peptides with wild-type ASB7-Elongin B/C. Format: binding. The note with it: for ASB7 binding ability of substituted peptide, in words: wild-type ASB7, compared with native LZTS1-degron; for -T∆S / ∆G / ∆H: wild-type ASB7-Elongin B/C; for ∆H: mean ± SD of three repeats. The protocol:
The human ASB7 (residues 11-318) was amplified via PCR from a human cDNA library and seamlessly cloned into the pET28-MKH8SUMO vector (Addgene plasmid #79526). […] ITC assays were performed using a MicroCal PEAQ-ITC instrument (Malvern Panalytical) at 16 °C. […] All protein and peptide stocks were prepared in an ITC buffer (20 mM Tris-HCl pH 7.5, and 150 mM NaCl) and subsequently diluted to the desired concentrations (39-156 μM for ASB7 protein and 0.8-4 mM for the peptides, respectively). In each experiment, 1.5 μL of peptide was titrated into the ASB7 complex solution with 15 injections. The injections were spaced at 90 seconds with a reference power of 15 μcal/s. The ITC data were processed using MicroCal PEAQ-ITC Analysis software.

Where [1] appears, read: ITC, MicroCal PEAQ-ITC, 16 °C, 20 mM Tris-HCl pH 7.5, 150 mM NaCl, peptide (0.8–4 mM) titrated into wild-type ASB7-Elongin B/C (39–156 μM), 15 injections, mean ± SD of three independent repeats, read-out: KD.
Setting [2] is: ITC, 16 °C, 20 mM Tris-HCl pH 7.5, 150 mM NaCl.

T1 sequence (Q9H672 11-318): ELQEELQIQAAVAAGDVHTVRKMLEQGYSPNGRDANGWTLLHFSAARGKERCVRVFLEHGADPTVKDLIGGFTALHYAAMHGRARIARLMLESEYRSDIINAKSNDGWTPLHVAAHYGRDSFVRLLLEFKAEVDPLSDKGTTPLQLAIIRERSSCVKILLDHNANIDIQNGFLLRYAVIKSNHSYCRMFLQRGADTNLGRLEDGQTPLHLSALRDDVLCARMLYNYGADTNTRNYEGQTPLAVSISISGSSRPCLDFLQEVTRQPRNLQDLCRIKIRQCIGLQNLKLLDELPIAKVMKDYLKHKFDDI
T1 sequence (Q15370 1-104 partner limits assumed): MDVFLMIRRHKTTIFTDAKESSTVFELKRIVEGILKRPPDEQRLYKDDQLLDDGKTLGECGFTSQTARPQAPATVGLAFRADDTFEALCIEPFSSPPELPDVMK
T1 sequence (Q15369 17-112 partner limits assumed): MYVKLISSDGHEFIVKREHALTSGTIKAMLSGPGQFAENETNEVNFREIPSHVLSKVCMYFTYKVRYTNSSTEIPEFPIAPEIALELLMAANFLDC

In the case of `CSCC[C@H](NC(=O)[C@H](CC(C)C)NC(=O)[C@H](CO)NC(=O)[C@H](CCC(=O)O)NC(=O)[C@H](CC(C)C)NC(=O)[C@@H](N)CCC(=O)O)C(=O)N[C@@H](CCCCN)C(=O)N[C@@H](CCC(=O)O)C(=O)N[C@@H](CCC(N)=O)C(=O)O` (H-ELESLMKEQ-OH; N-terminus and C-terminus assumed), the Kd under setting [1] was above 30 µM.

In the case of `CSCC[C@H](NC(=O)[C@H](CC(C)C)NC(=O)[C@H](CO)NC(=O)[C@H](CCC(=O)O)NC(=O)[C@H](CC(C)C)NC(=O)[C@@H](N)CCC(=O)O)C(=O)N[C@@H](CCCCN)C(=O)N[C@@H](CCC(=O)O)C(=O)N[C@@H](CCC(N)=O)C(=O)N[C@@H](CC(=O)O)C(=O)N[C@@H](CC(C)C)C(=O)N[C@@H](CC(C)C)C(=O)N[C@@H](CCC(=O)O)C(=O)O` (H-ELESLMKEQDLLE-OH; N-terminus and C-terminus assumed), the Kd under setting [1] is above 30 µM.

As to `CSCC[C@H](NC(=O)[C@H](CC(C)C)NC(=O)[C@H](CO)NC(=O)[C@H](CCC(=O)O)NC(=O)[C@H](CC(C)C)NC(=O)[C@@H](N)CCC(=O)O)C(=O)N[C@@H](CCCCN)C(=O)N[C@@H](CCC(=O)O)C(=O)N[C@@H](CCC(N)=O)C(=O)N[C@@H](CC(=O)O)C(=O)N[C@@H](CC(C)C)C(=O)N[C@@H](CC(C)C)C(=O)N[C@@H](CCC(=O)O)C(=O)N[C@H](C(=O)N[C@@H](CCCCN)C(=O)N[C@@H](CC(C)C)C(=O)N[C@@H](CCCNC(=N)N)C(=O)N[C@@H](CO)C(=O)N[C@@H](Cc1ccc(O)cc1)C(=O)N[C@@H](CCC(=O)O)C(=O)N[C@@H](CCCNC(=N)N)C(=O)O)[C@@H](C)O` (H-ELESLMKEQDLLETKLRSYER-OH), the equilibrium dissociation constant (Kd) under setting [1] was 0.7 ± 0.31 µM.

As to `CSCC[C@H](NC(=O)[C@H](CC(C)C)NC(=O)[C@H](CO)NC(=O)[C@H](CCC(=O)O)NC(=O)[C@H](CC(C)C)NC(=O)[C@H](CCC(=O)O)NC(=O)[C@H](CCC(N)=O)NC(=O)[C@@H](N)CCCNC(=N)N)C(=O)N[C@@H](CCCCN)C(=O)N[C@@H](CCCNC(=N)N)C(=O)N[C@@H](CCC(N)=O)C(=O)N[C@@H](CC(=O)O)C(=O)N[C@@H](CC(C)C)C(=O)N[C@@H](CC(C)C)C(=O)N[C@@H](CCC(=O)O)C(=O)N[C@H](C(=O)N[C@@H](CCCCN)C(=O)N[C@@H](CC(C)C)C(=O)N[C@@H](CCCNC(=N)N)C(=O)N[C@@H](CO)C(=O)N[C@@H](Cc1ccc(O)cc1)C(=O)N[C@@H](CCC(=O)O)C(=O)N[C@@H](CCCNC(=N)N)C(=O)O)[C@@H](C)O` [E8R] (H-RQELESLMKRQDLLETKLRSYER-OH; N-terminus and C-terminus assumed), under setting [1], the Kd is above 30 µM. In addition, the “ASB7 binding ability of substituted peptide, in words” value (“ASB7 binding ability” below) (ITC) was “almost complete loss”.

On to `CSCC[C@H](NC(=O)[C@H](CC(C)C)NC(=O)[C@H](CO)NC(=O)[C@H](CCC(=O)O)NC(=O)[C@H](CC(C)C)NC(=O)[C@@H](N)CCC(=O)O)C(=O)O` [ELESLM] (H-ELESLM-OH), for which the Kd was above 30 µM.

In the case of `CSCC[C@H](NC(=O)[C@H](CCCNC(=N)N)NC(=O)[C@H](CO)NC(=O)[C@H](CCC(=O)O)NC(=O)[C@H](CC(C)C)NC(=O)[C@H](CCC(=O)O)NC(=O)[C@H](CCC(N)=O)NC(=O)[C@@H](N)CCCNC(=N)N)C(=O)N[C@@H](CCCCN)C(=O)N[C@@H](CCC(=O)O)C(=O)N[C@@H](CCC(N)=O)C(=O)N[C@@H](CC(=O)O)C(=O)N[C@@H](CC(C)C)C(=O)N[C@@H](CC(C)C)C(=O)N[C@@H](CCC(=O)O)C(=O)N[C@H](C(=O)N[C@@H](CCCCN)C(=O)N[C@@H](CC(C)C)C(=O)N[C@@H](CCCNC(=N)N)C(=O)N[C@@H](CO)C(=O)N[C@@H](Cc1ccc(O)cc1)C(=O)N[C@@H](CCC(=O)O)C(=O)N[C@@H](CCCNC(=N)N)C(=O)O)[C@@H](C)O` [L5R] (H-RQELESRMKEQDLLETKLRSYER-OH; N-terminus and C-terminus assumed), the Kd under setting [1] was above 30 µM. Further, for the setting “ITC”, the “ASB7 binding ability” value is “almost complete loss”.

In the case of `CSCC[C@H](NC(=O)[C@H](CC(C)C)NC(=O)[C@H](CO)NC(=O)[C@H](CCC(=O)O)NC(=O)[C@H](CC(C)C)NC(=O)[C@H](CCC(=O)O)NC(=O)[C@H](CCC(N)=O)NC(=O)[C@@H](N)CCCNC(=N)N)C(=O)N[C@@H](CCCCN)C(=O)N[C@@H](CCC(=O)O)C(=O)N[C@@H](CCC(N)=O)C(=O)N[C@@H](CC(=O)O)C(=O)N[C@@H](CC(C)C)C(=O)N[C@@H](CCCNC(=N)N)C(=O)N[C@@H](CCC(=O)O)C(=O)N[C@H](C(=O)N[C@@H](CCCCN)C(=O)N[C@@H](CC(C)C)C(=O)N[C@@H](CCCNC(=N)N)C(=O)N[C@@H](CO)C(=O)N[C@@H](Cc1ccc(O)cc1)C(=O)N[C@@H](CCC(=O)O)C(=O)N[C@@H](CCCNC(=N)N)C(=O)O)[C@@H](C)O` [L12R] (H-RQELESLMKEQDLRETKLRSYER-OH; N-terminus and C-terminus assumed), under setting [1], the Kd was above 30 µM. The “ASB7 binding ability” value (ITC) is “almost complete loss”.

Consider `CSCC[C@H](NC(=O)[C@H](CC(C)C)NC(=O)[C@H](CO)NC(=O)[C@H](CCC(=O)O)NC(=O)[C@H](CC(C)C)NC(=O)[C@H](CCC(=O)O)NC(=O)[C@H](CCC(N)=O)NC(=O)[C@@H](N)CCCNC(=N)N)C(=O)N[C@@H](CCCCN)C(=O)N[C@@H](CCC(=O)O)C(=O)N[C@@H](CCC(N)=O)C(=O)N[C@@H](CC(=O)O)C(=O)N[C@@H](CC(C)C)C(=O)N[C@@H](CC(C)C)C(=O)N[C@@H](CCC(=O)O)C(=O)N[C@H](C(=O)N[C@@H](CCCCN)C(=O)N[C@@H](CCCNC(=N)N)C(=O)N[C@@H](CCCNC(=N)N)C(=O)N[C@@H](CO)C(=O)N[C@@H](Cc1ccc(O)cc1)C(=O)N[C@@H](CCC(=O)O)C(=O)N[C@@H](CCCNC(=N)N)C(=O)O)[C@@H](C)O` [L16R] (H-RQELESLMKEQDLLETKRRSYER-OH; N-terminus and C-terminus assumed), for which the Kd under setting [1] was above 30 µM. Moreover, for the setting “ITC”, the “ASB7 binding ability” value is reported as “almost complete loss”.

For `CSCC[C@H](NC(=O)[C@H](CC(C)C)NC(=O)[C@H](CO)NC(=O)[C@H](CCC(=O)O)NC(=O)[C@H](CC(C)C)NC(=O)[C@H](CCC(=O)O)NC(=O)[C@H](CCC(N)=O)NC(=O)[C@@H](N)CCCNC(=N)N)C(=O)N[C@@H](CCCCN)C(=O)N[C@@H](CCC(=O)O)C(=O)N[C@@H](CCC(N)=O)C(=O)N[C@@H](CC(=O)O)C(=O)N[C@@H](CC(C)C)C(=O)N[C@@H](CC(C)C)C(=O)N[C@@H](CCC(=O)O)C(=O)N[C@H](C(=O)N[C@@H](CCCCN)C(=O)N[C@@H](CC(C)C)C(=O)N[C@@H](CCCNC(=N)N)C(=O)N[C@@H](CO)C(=O)N[C@@H](CCCNC(=N)N)C(=O)N[C@@H](CCC(=O)O)C(=O)N[C@@H](CCCNC(=N)N)C(=O)O)[C@@H](C)O` [Y19R] (H-RQELESLMKEQDLLETKLRSRER-OH), under setting [1], the Kd stood at 0.7 ± 0.05 µM.

With “EIGELKAVMEGIKMEHQLELGN [CLIP2-degron, synthetic degron peptide derived from CLIP2]”, under setting [2], the “-T∆S” value came to 2.57 kcal/mol, the “∆G” value is given as -8.23 kcal/mol and the “∆H” value is -10.8 ± 0.25 kcal/mol.

Take “ELEKAKQECQDLKGKLEKCCRH [CEP152-degron, synthetic degron peptide derived from CEP152]”: under setting [2], the “-T∆S” value is reported as -4.79 kcal/mol, the “∆G” value is reported as -6.59 kcal/mol and the “∆H” value was -1.8 ± 0.09 kcal/mol. The Kd under setting [1] came to 3.8 µM.
